The record followed here is patent US20090124672A1 (priority 2007, published 2009).

The target of assay [1] is T1, hALDH2 (recombinant human mitochondria ALDH) (Homo sapiens, UniProt P05091).
T1 sequence (P05091 18-517): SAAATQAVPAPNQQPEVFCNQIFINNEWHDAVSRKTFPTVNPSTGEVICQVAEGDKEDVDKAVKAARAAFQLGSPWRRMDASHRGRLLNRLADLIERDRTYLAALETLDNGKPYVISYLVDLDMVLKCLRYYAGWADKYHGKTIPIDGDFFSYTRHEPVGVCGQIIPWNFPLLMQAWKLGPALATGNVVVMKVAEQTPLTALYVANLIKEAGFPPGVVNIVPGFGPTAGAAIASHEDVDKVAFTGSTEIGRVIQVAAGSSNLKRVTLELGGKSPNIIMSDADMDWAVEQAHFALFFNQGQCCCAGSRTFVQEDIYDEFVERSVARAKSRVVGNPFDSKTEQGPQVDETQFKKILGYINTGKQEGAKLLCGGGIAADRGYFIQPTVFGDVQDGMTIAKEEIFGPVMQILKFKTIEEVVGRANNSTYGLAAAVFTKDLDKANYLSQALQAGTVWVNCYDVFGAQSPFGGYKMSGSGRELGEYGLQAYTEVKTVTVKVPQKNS
Nature of the assay: ALDH2 inhibition assay (NADH formation, formaldehyde substrate). Conditions: for inhibition at 1 µM: read-out: hALDH2 inhibition (IC50 hALDH2 column). It is filed as biochemical. The method, boiled down: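 1 nM enzyme in 50 mM sodium phosphate pH 7.4 with 1.2 mM NAD+ and compound at 0.03–1000 nM; reaction started with 0.15 mM formaldehyde at 25 °C. NADH formation followed by fluorescence (ex 340/em 460 nm). IC50 from sigmoidal fits with floating Hill slope; apparent Ki from Morrison equation if tight binding.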

In assay [2] the target is T2, hMAO-B (Homo sapiens, UniProt P27338).
T2 construct: purchased Sigma M7441
T2 sequence (P27338 1-520): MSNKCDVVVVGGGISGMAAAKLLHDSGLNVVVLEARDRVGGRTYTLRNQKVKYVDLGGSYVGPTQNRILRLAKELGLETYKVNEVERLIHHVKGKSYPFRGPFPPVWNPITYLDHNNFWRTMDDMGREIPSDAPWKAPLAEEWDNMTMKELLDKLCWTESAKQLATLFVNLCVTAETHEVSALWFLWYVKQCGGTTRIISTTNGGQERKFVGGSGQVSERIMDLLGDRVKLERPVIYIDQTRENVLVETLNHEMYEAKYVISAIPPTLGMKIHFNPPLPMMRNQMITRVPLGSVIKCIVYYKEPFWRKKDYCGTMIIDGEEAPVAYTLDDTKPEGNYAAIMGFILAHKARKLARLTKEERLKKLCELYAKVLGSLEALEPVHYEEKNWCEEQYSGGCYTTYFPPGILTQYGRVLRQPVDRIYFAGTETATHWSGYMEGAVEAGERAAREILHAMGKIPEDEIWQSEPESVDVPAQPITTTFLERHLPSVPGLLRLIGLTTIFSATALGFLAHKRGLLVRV
Nature of the assay: MAO-B inhibition assay (Amplex Red, horseradish peroxidase-coupled). It is filed as biochemical. Conditions: at 10 μM; for inhibition at 10 µM: read-out: hMAO-B inhibition (IC50 hMAO-B). As to the method:
MAO-A (Sigma M7316) and MAO-B (Sigma M7441) inhibition assays were conducted in 96-well micro-plates according to the method described by Zhou et al. [Analytical Biochemistry 253, 169-174, 1997]. Both assays were performed in potassium phosphate buffer (0.1 M, pH 7.5) containing 0.5 mM tyramine (Sigma T2879), 0.12 mM N-acetyl-3,7-dihydrophenoxazine (Amplex Red, Invitrogen A12222), 1.2 unit/ml horseradish peroxidase (Sigma P2088), 0.6 unit/ml MAO-A or 2.5 unit/ml MAO-B, and various concentrations of test compounds (0.1 nM to 10 uM). Reactions were initiated by the addition of a pre-mixed solution of tyramine, horseradish peroxidase and Amplex Red, and were allowed to proceed at 37° C. for 30 min. Enzyme activities were determined by measuring absorbance at 570 nm (SpectralMax Plate reader), absorbance of oxidized Amplex Red generated by this horseradish peroxidase-coupled reaction. Nonspecifically formed products were determined in the presence of 2 and 10 µM clorgyline and deprenyl for MAO-A and MAO-B, respectively. IC50 values were determined by fitting concentration-inhibition data to sigmoidal dose-response curves with two-floating parameters: IC50 and Hill coefficient.

For `C[C@@H](NC(=O)COc1ccc2c(=O)c(-c3ccc(O)cc3)coc2c1)c1ccc(F)cc1` [PT-90, N-[(1R)-1-(4-fluorophenyl)ethyl]-2-[3-(4-hydroxyphenyl)-4-oxochromen-7-yloxy]acetamide], the IC50 (commonly the concentration at which inhibition is half-maximal) in assay [1] turned out to be 6 nM. Also, the inhibition (commonly the percentage by which the read-out fell short of the control) at 10 µM in assay [2] is 12%.
Turning to `CS(=O)(=O)c1ccc(-c2coc3cc(OCc4noc(-c5cc(F)cc(C(F)(F)F)c5)n4)ccc3c2=O)cc1` [PT-71, 7-({5-[3-fluoro-5-(trifluoromethyl)phenyl](1,2,4-oxadiazol-3-yl)}methoxy)-3-[4-(methylsulfonyl)phenyl]chromen-4-one], the inhibition at 1 µM in assay [1] came to 8%. In addition, the inhibition at 10 µM in assay [2] came out at 11%.
As to “7-({5-[3-fluoro-5-(trifluoromethyl)phenyl](1,2,4-oxadiazol-3-yl)}ethoxy)-3-(4-hydroxyphenyl)chromen-4-one [PT-79]”, the half-inhibitory concentration (IC50) in assay [1] came out at 48 nM. Also, the “hMAO-B inhibition (IC50 hMAO-B)” value in assay [2] was found to be 18%.
As for `O=c1c(-c2ccc(O)cc2)coc2cc(OCCOc3ccc(Cl)cc3)ccc12` [PT-89, 7-[2-(4-chlorophenoxy)ethoxy]-3-(4-hydroxyphenyl)chromen-4-one], the IC50 in assay [1] came to 22 nM. The inhibition at 10 µM in assay [2] was found to be 32%.
`O=c1c(-c2ccc(O)cc2)coc2cc(OCCCc3ccccc3)ccc12` [PT-57, 3-(4-hydroxyphenyl)-7-(3-phenylpropoxy)chromen-4-one]: the IC50 in assay [1] was found to be 20 nM. In addition, in assay [2], the “hMAO-B inhibition (IC50 hMAO-B)” value is 27% and the inhibition at 10 µM turned out to be 27%.
Consider `CC(=O)c1cccc(-c2coc3cc(OCc4noc(-c5cc(F)cc(C(F)(F)F)c5)n4)ccc3c2=O)c1` [PT-73, 3-(3-acetylphenyl)-7-({5-[3-fluoro-5-(trifluoromethyl)phenyl](1,2,4-oxadiazol-3-yl)}methoxy)chromen-4-one], for which the inhibition at 1 µM in assay [1] was found to be 18%. The inhibition at 10 µM in assay [2] was 10%.
Take `COC(=O)c1coc(COc2ccc3c(=O)c(-c4ccc(O)cc4)coc3c2)n1` [PT-101, methyl 2-{[3-(4-hydroxyphenyl)-4-oxochromen-7-yloxy]methyl}-1,3-oxazole-4-carboxylate]: the IC50 in assay [1] was 5 nM. Also, the inhibition at 10 µM in assay [2] stood at 34%.
As to “3-(4-hydroxyphenyl)-7-(2-{4-[3-(trifluoromethyl)phenyl]piperazinyl}ethoxy)chromen-4-one [PT-124]”, the IC50 in assay [1] came out at 18 nM. Also, the “hMAO-B inhibition (IC50 hMAO-B)” value in assay [2] came to 21%.
Taken in the same sequence, the figures for “3-(4-hydroxyphenyl)-7-[(5-(3-pyridyl)(1,3,4-oxadiazol-2-yl))ethoxy]chromen-4-one [PT-113]” were 17 nM and 30%.
On the same counts, the results for `O=c1c(-c2ccc(O)cc2)coc2cc(OCCc3cccc(C(F)(F)F)c3)ccc12` [PT-59, 3-(4-hydroxyphenyl)-7-{[3-(trifluoromethyl)phenyl]ethoxy}chromen-4-one] are 670 nM and 24%.
As to `N#Cc1ccc(-c2coc3cc(OCc4nnc(-c5cc(F)cc(C(F)(F)F)c5)o4)ccc3c2=O)cc1` [PT-68, 4-[7-({5-[5-fluoro-3-(trifluoromethyl)phenyl](1,3,4-oxadiazol-2-yl)}methoxy)-4-oxochromen-3-yl]benzenecarbonitrile], in assay [1], the inhibition at 1 µM was 33%. Also, the inhibition at 10 µM in assay [2] was determined as 14%.
On to `COC(=O)c1cnc(COc2ccc3c(=O)c(-c4ccc(O)cc4)coc3c2)o1` [PT-47, methyl 2-{[3-(4-hydroxyphenyl)-4-oxochromen-7-yloxy]methyl}-1,3-oxazole-5-carboxylate], for which, in assay [1], the IC50 is 5 nM. For the same compound, the inhibition at 10 µM in assay [2] came out at 34%.
For the compound `O=c1c(-c2ccc(O)cc2)coc2cc(OCCc3ccccc3)ccc12` [PT-87, 3-(4-hydroxyphenyl)-7-(2-phenylethoxy)chromen-4-one], in assay [1], the inhibition at 1 µM was found to be 0.04%. Moreover, the inhibition at 10 µM in assay [2] is 21%.
As to `O=c1c(-c2ccc(O)cc2)coc2cc(OCc3nnc(-c4cccc(F)c4)o3)ccc12` [PT-58, 7-{[5-(3-fluorophenyl)(1,3,4-oxadiazol-2-yl)]methoxy}-3-(4-hydroxyphenyl)chromen-4-one], the IC50 in assay [1] stood at 11 nM. In assay [2], the inhibition at 10 µM was 25%.
Take `O=c1c(-c2ccc(O)cc2)coc2cc(OCc3nnc(-c4cc(F)cc(C(F)(F)F)c4)o3)ccc12` [PT-74, 7-({5-[3-fluoro-5-(trifluoromethyl)phenyl](1,3,4-oxadiazol-2-yl)}methoxy)-3-(4-hydroxyphenyl)chromen-4-one]: the IC50 in assay [1] came to 5 nM. In addition, in assay [2], the inhibition at 10 µM was determined as 22%.
As to `C[C@H](NC(=O)COc1ccc2c(=O)c(-c3ccc(O)cc3)coc2c1)c1ccc(F)cc1` [PT-103, N-[(1S)-1-(4-fluorophenyl)ethyl]-2-[3-(4-hydroxyphenyl)-4-oxochromen-7-yloxy]acetamide], the IC50 in assay [1] stood at 8 nM. For the same compound, the inhibition at 10 µM in assay [2] was found to be 29%.
As to `COc1ccc(-c2coc3cc(OCc4sc(-c5ccc(C(F)(F)F)cc5)nc4C)ccc3c2=O)cn1` [PT-67, 3-(6-methoxy(3-pyridyl))-7-({4-methyl-2-[4-(trifluoromethyl)phenyl](1,3-thiazol-5-yl)}methoxy)chromen-4-one], the inhibition at 1 µM in assay [1] was determined as 25%. For the same compound, the inhibition at 10 µM in assay [2] was determined as 16%.
Take `O=c1c(-c2ccc(O)cc2)coc2cc(OCc3ccccn3)ccc12` [PT-91, 3-(4-hydroxyphenyl)-7-(2-pyridylmethoxy)chromen-4-one]: in assay [1], the IC50 was 7 nM. The inhibition at 10 µM in assay [2] turned out to be 11%.
For `O=c1c(-c2ccc(O)cc2)coc2cc(OCc3nnc(-c4ccc(F)cc4)o3)ccc12` [PT-81, 7-{[5-(4-fluorophenyl)(1,3,4-oxadiazol-2-yl)]methoxy}-3-(4-hydroxyphenyl)chromen-4-one], the IC50 in assay [1] is 0.4 nM. Also, in assay [2], the inhibition at 10 µM came out at 12%.
For the compound `O=c1c(-c2ccc(O)cc2)coc2cc(OCc3cnc(-c4ccccc4)o3)ccc12` [PT-61, 3-(4-hydroxyphenyl)-7-[(2-phenyl(1,3-oxazol-5-yl))methoxy]chromen-4-one], the IC50 in assay [1] turned out to be 96 nM. In assay [2], the inhibition at 10 µM was 17%.
On to `O=c1c(-c2ccc(O)cc2)coc2cc(OCc3cc(-c4cccc(C(F)(F)F)c4)on3)ccc12` [PT-45, 3-(4-hydroxyphenyl)-7-({5-[3-(trifluoromethyl)phenyl]isoxazol-3-yl}methoxy)chromen-4-one], for which, in assay [1], the concentration for half-maximal inhibition (IC50) was 98 nM. For the same compound, in assay [2], the “hMAO-B inhibition (IC50 hMAO-B)” value was determined as 7% and the inhibition at 10 µM came out at 7%.
As for `C[C@@H](NCC(=O)COc1ccc2c(=O)c(-c3ccc(O)cc3)coc2c1)c1ccc(F)cc1` [PT-56, 7-(3-{[(1R)-1-(4-fluorophenyl)ethyl]amino}-2-oxopropoxy)-3-(4-hydroxyphenyl)chromen-4-one], the IC50 in assay [1] was found to be 8 nM. In assay [2], the inhibition at 10 µM amounted to 29%.
On the same counts, the results for `O=c1c(-c2ccc(O)cc2)coc2cc(OCc3nnc(-c4cccc(C(F)(F)F)c4)o3)ccc12` [PT-60, 3-(4-hydroxyphenyl)-7-({5-[3-(trifluoromethyl)phenyl](1,3,4-oxadiazol-2-yl)}methoxy)chromen-4-one] are 42 nM and 13%.
With `Cc1nc(-c2ccc(C(F)(F)F)cc2)sc1COc1ccc2c(=O)c(-c3ccc(NS(C)(=O)=O)cc3)coc2c1` [PT-66, 3-{4-[(methylsulfonyl)amino]phenyl}-7-({4-methyl-2-[4-(trifluoromethyl)phenyl](1,3-thiazol-5-yl)}methoxy)chromen-4-one], the inhibition at 1 µM in assay [1] amounted to 48%. The inhibition at 10 µM in assay [2] worked out at 25%.
